Test results reported in US8021846B2, “Method for determining azole resistance in Candida glabrata” (Medical Diagnostic Laboratories, LLC, priority 2008, dated 2011).
Values after ≈ are worked out from the molar mass of the structure shown.

Test system: Candida glabrata clinical isolates
Test: Microbroth dilution assay (CLSI M27-A2) of azole susceptibility of clinical isolates;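 also: growth of C. glabrata cervicovaginal isolates in 96-well plates, absorbance at 620 nm minus medium background, 35 °C for 24 and 48 h, DMSO ≦0.5%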
Conditions: for % of isolates S (susceptible) / No. of isolates S (susceptible): 175 C. glabrata cervicovaginal clinical isolates, S = MIC ≦8 μg/ml fluconazole, ≦1 μg/ml voriconazole, proposed breakpoints for voriconazole and miconazole; for MIC: Nakaseomyces glabratus
Description: One hundred seventy-five (175) Candida glabrata clinical isolates were retrieved from cervicovaginal swabs. Clinical isolates were obtained from cervicovaginal swabs of female patients suspected of having vulvovaginal candidiasis (WC) from across the United States. Candida glabrata PCR positive swabs were struck out on Candida CHROMagar, and individual Candida glabrata colonies were isolated for susceptibility testing using the microbroth dilution assay according to the Clinical and Laboratory Standards Institute protocol. Susceptibilities of these isolates to triazole anti-fungal drugs (e.g., fluconazole, voriconazole, and miconazole) were determined.
The microbroth dilution assays were performed using RPMI 1640 (minus glutamine, and 0.165 M MOPS to pH 7.0) (Sigma, St. Louis, Mo.). […] Drugs were obtained from the following sources: fluconazole (LKT Laboratories, St. Paul, Minn.), miconazole (MP Biomedicals, Inc., Solon, Ohio) and voriconazole (Pfizer, New York, N.Y.). All drugs were dissolved in dimethyl sulfoxide (DMSO) to a final concentration of ≦0.5% in all experiments at which C. glabrata growth was not affected.
Protocols for microbroth dilution assays (i.e., susceptibility testing) was performed by MBD according to the Clincial and Laboratory Standards Institute (CLSI) guidelines outlined in M27-A2. Azole antifungals and concentrations tested were fluconazole (2 to 128 μg/ml), voriconazole (8 to 0.125 μg/ml), and miconazole (8 to 0.125 μg/ml). Candida glabrata isolates were growth in RPMI 1640 media (minus glutamine, plus 2% glucose, and 0.165M MOPS to pH 7.0) to mid-log phase and cultures were diluted to 5×10^3 cells/ml in RPMI 1640 medium. Aliquots of 100 μl were distributed to wells of a 96-well flat-bottom plate, except for row A which received 200 μl. Drug was added to row A at the desired concentration (fluconazole, 128 μg/ml, voriconazole 8 μg/ml, and miconazole 8 μg/ml) and then serially two-fold diluted to rows B through G; row H served as a drug-free control. Plates were incubated at 35° C. for 24 and 48 hours. Absorbance at 620 nm was read with a microplate reader (Beckman Coulter, Inc., Fullerton, Calif.); background due to medium was subtracted from all readings.
The MIC was defined as the lowest concentration inhibiting growth at least 80% relative to the drug-free control.

## OC(Cn1cncn1)(Cn1cncn1)c1ccc(F)cc1F [Fluconazole, fluconazole]
  % of isolates S (susceptible): 30.9%
  No. of isolates S (susceptible): 54
Isolates of swab S1 (susceptible group)
  MIC: 8 µg/mL (≈ 26.1 µM)
Isolates of swab S2 (susceptible group)
  MIC: 4 µg/mL (≈ 13.1 µM)
Isolates of swab S3 (susceptible group)
  MIC: 4 µg/mL (≈ 13.1 µM)
Isolates of swab S4 (susceptible group)
  MIC: 2 µg/mL (≈ 6.53 µM)
Isolates of swab S5 (susceptible group)
  MIC: 4 µg/mL (≈ 13.1 µM)
Isolates of swab S6 (susceptible group)
  MIC: 4 µg/mL (≈ 13.1 µM)
Isolates of swab S7 (susceptible group)
  MIC: 4 µg/mL (≈ 13.1 µM)
Isolates of swab S8 (susceptible group)
  MIC: 4 µg/mL (≈ 13.1 µM)
Isolates of swab S9 (susceptible group)
  MIC: 2 µg/mL (≈ 6.53 µM)
Isolates of swab S11 (S-DD group)
  MIC: 16 µg/mL (≈ 52.2 µM)
Isolates of swab S12 (S-DD group)
  MIC: 16 µg/mL (≈ 52.2 µM)
Isolates of swab S13 (S-DD group)
  MIC: 16 µg/mL (≈ 52.2 µM)
Isolates of swab S14 (S-DD group)
  MIC: 16 µg/mL (≈ 52.2 µM)
Isolates of swab S15 (S-DD group)
  MIC: 32 µg/mL (≈ 104 µM)
Isolates of swab S16 (S-DD group)
  MIC: 16 µg/mL (≈ 52.2 µM)
Isolates of swab S17 (S-DD group)
  MIC: 16 µg/mL (≈ 52.2 µM)
Isolates of swab S18 (S-DD group)
  MIC: 16 µg/mL (≈ 52.2 µM)
Isolates of swab S19 (S-DD group)
  MIC: 32 µg/mL (≈ 104 µM)
Isolates of swab S20 (S-DD group)
  MIC: 32 µg/mL (≈ 104 µM)
Isolates of swab S21 (resistant group)
  MIC: 128 µg/mL (≈ 418 µM)
Isolates of swab S22 (resistant group)
  MIC: 128 µg/mL (≈ 418 µM)
Isolates of swab S23 (resistant group)
  MIC: 128 µg/mL (≈ 418 µM)
Isolates of swab S24 (resistant group)
  MIC: 128 µg/mL (≈ 418 µM)
Isolates of swab S25 (resistant group)
  MIC: 64 µg/mL (≈ 209 µM)
Isolates of swab S26 (resistant group)
  MIC: 128 µg/mL (≈ 418 µM)
Isolates of swab S27 (resistant group)
  MIC: 64 µg/mL (≈ 209 µM)
Isolates of swab S28 (resistant group)
  MIC: 128 µg/mL (≈ 418 µM)
Isolates of swab S29 (resistant group)
  MIC: 64 µg/mL (≈ 209 µM)
Swab S10, the single resistant isolate
  MIC: 128 µg/mL (≈ 418 µM)
Swab S10, the two susceptible isolates
  MIC: 8 µg/mL (≈ 26.1 µM)

## Clc1ccc(COC(Cn2ccnc2)c2ccc(Cl)cc2Cl)c(Cl)c1 (stereo not shown) [Miconazole, miconazole]
  % of isolates S (susceptible): 100.0%
  No. of isolates S (susceptible): 175
175 C. glabrata clinical isolates
  Susceptibility of the clinical isolates (in words): All of the clinical isolates were susceptible

## C[C@@H](c1ncncc1F)[C@](O)(Cn1cncn1)c1ccc(F)cc1F [Voriconazole, voriconazole]
  % of isolates S (susceptible): 62.3%
  No. of isolates S (susceptible): 109
